Test results published in US5459142A, “Pyrazinyl and piperazinyl substituted pyrazine compounds” (Otsuka Pharmaceutical Co., Ltd., priority 1991, dated 1995).
In brackets after ≈: the same amount, converted by molar mass.

How the values were obtained:
[1] = system: superoxide radicals (O2^-) released from peritoneal macrophage cells of guinea pig; assay: Inhibitory effect against superoxide radicals released from peritoneal macrophage cells of guinea pig by stimulation (FMLP), cytochrome C reduction; assay type: cell-based; details: Cavia porcellus, Peritoneal macrophage cell; guinea pig peritoneal macrophages 2×10^6 cells/ml; FMLP 10^-7 M; 37° C.; OD550; read-out: IC50 (superoxide radical release)
Method: Inhibitory effect against superoxide radicals released from the peritoneal macrophage cells of guinea pig by stimulation:
Mineral oil (15 ml) was intraperitoneally administered to a guinea pig, then 96 hours after the administration, the peritoneal macrophage cells were sampled.
Superoxide radicals (O2^-) were determined by means of reduction of cytochrome C method according to the procedure described in an article written by T. Matsumoto, K. Takeshige and S. Minakami: Biochemical and Biophysical Research Communications, Vol. 88, No. 3, pp. 974-979, (1979).
The peritoneal macrophage cells were added to make the final concentration of 2×10^6 cells/ml into ml of 80 μM-cytochrome C solution, and the test compound of pyrazine derivative of the present invention was added thereto to make the test group sample. On the other hand, water was added in place of the test compound of the present invention to make the control group sample. Each of the test group sample and the control group sample was subjected to pre-incubation at 37° C. for 1 minute.
As to the stimulating agent for releasing superoxide radicals (O2^-), FMLP (formylmethionyl leucyl phenylalanine) was added to make the final concentration thereof to 10^-7 M, to each of the test group sample and the control group sample. Then both samples were subjected to additional reaction by incubation for 1 minute.
Difference of the optical absorbances measured at 550 nm (OD550) of both test group and control group samples were determined, and the 50% inhibitory concentration (IC50) was obtained by calculating as the ratio of OD550 of the test group sample to that of the control group sample.

[2] = system: releasing of hydrogen peroxide (H2O2) from the neutrocytes of rat abdominal cavity; assay: Inhibitory effect against the releasing of hydrogen peroxide (H2O2) from the neutrocytes of rat abdominal cavity; assay type: cell-based, SD-strain rat; details: rat neutrocytes 10^6 cells/ml; FMLP 2×10^-6 M; 37° C., 1 hour; OD510
Method: Inhibitory effect against the releasing of hydrogen peroxide (H2 O2) from the neutrocytes of rat abdominal cavity
1) 1%-Casein solution was administered to the adbominal cavity of a SD-strain rat, then 16 hours after the administration, the neutrocytes were obtained by washing the abdominal cavity. Thus obtained neutrocytes were washed with Hank's solution.
2) The formulation of the reaction mixture(*) was as follows: […]
______________________________________
Rat neutrocytes 10^6 cells/ml
Text compound was added to the reaction mixture, then the whole mixture was incubated at 37° C. for 1 hour.
3) Next, the reacted mixture was subjected to centrifugal separation at 2,000 rpm for 10 minutes, then ml of the supernatant liquor was taken as a sample and microliters of 1N-NaOH solution was added thereto.
4) The optical absorbance at 510 nm (OD510) was determined by means of using a spectrophotometer. The 50% inhibitory concentration was obtained by calculating as the ratio of OD510 of the test group sample to that of the control group sample.

[3] = system: releasing of lysosome from the neutrocytes of rat; assay: Inhibitory effect against the releasing of lysosome from the neutrocytes of rat; assay type: cell-based; details: rat neutrocytes 5×10^5 cells/ml; 10^-6 M FMLP and 5 μg/ml cytochalasin B; OD540
Method: Inhibitory effect against the releasing of lysosome from the neutrocytes of rat
The neutrocytes of rat were sampled from the abdominal cavity of the rat 16 hours after the administration of 10 ml of 1%-casein solution (physiological saline solution).
Reaction of the releasing of lysosome from the neutrocytes of rat was determined by means of the method as described in an article written by T. Matsumoto, K. Takeshige and S. Minakami: Biochemical and Biophysical Research Communications, Vol. 88, No. 3, pp. 974-979, (1979).
The neutrocytes being sampled were added to Hank's solution so as to make the concentration thereof as 5×10^5 cells/ml, and the test compound of pyrazine derivative of the present invention was added thereto to make the test group sample. On the other hand, water as added in place of the pyrazine derivative of the present invention to make the control group sample. Each of the test group sample and the control group sample was subjected to pre-incubation at 37° C. for 1 minute.
As to the stimulating agents, 10^-6 M of FMLP (formylmethionyl leucyl phenylalanine) and 5 μg/ml of cytochalasin B were added to the solution. […] After the reaction, 1N-NaOH solution was added to the reaction mixture so as to make the pH value thereof to pH 8 to 9, and the optical absorbance of both test group samples and control group samples were determined at 540 nm (OD540). […]

Compound | IC50 [1] | IC50 [2] | IC50 [3]
COc1cccc(NC(=O)c2[nH]c(=O)c(CC(C)C)[n+]([O-])c2OC)c1 [Example 2] | 40 µg/mL (≈ 115 µM) | – | –
COc1c(C(=O)Nc2cccc(SC)c2)[nH]c(=O)c(CC(C)C)[n+]1[O-] [Example 3] | 20 µg/mL (≈ 55 µM) | – | –
COc1c(C(=O)Nc2ccc3c(c2)OCO3)[nH]c(=O)c(CC(C)C)[n+]1[O-] [Example 4] | 56 µg/mL (≈ 155 µM) | – | –
COc1c(C(=O)Nc2cc(C(C)(C)C)c(O)c(C(C)(C)C)c2)[nH]c(=O)c(CC(C)C)[n+]1[O-] [Example 5] | 17 µg/mL (≈ 38.2 µM) | 60 µg/mL (≈ 135 µM) | –
COc1c(C(=O)Nc2ccccc2-c2ccccc2)[nH]c(=O)c(CC(C)C)[n+]1[O-] [Example 6] | 3 µg/mL (≈ 7.62 µM) | – | 20 µg/mL
COc1c(C(=O)Nc2nc3ccccc3s2)[nH]c(=O)c(CC(C)C)[n+]1[O-] [Example 7] | 18 µg/mL (≈ 48.1 µM) | – | 16 µg/mL
COc1ccc2nc(NC(=O)c3[nH]c(=O)c(CC(C)C)[n+]([O-])c3OC)sc2c1 [Example 8] | 10 µg/mL (≈ 24.7 µM) | – | –
COc1cccc(CNC(=O)c2[nH]c(=O)c(CC(C)C)[n+]([O-])c2OC)c1 [Test compound 1, 3-Isobutyl-5-methoxy-6-[N-(3-methoxybenzyl)]-carbamoyl-1,2-dihydropyrazin-2-one 4-oxide] | 30 µg/mL (≈ 83 µM) | – | –
